Results: US5968952A, “Farnesyl transferase inhibiting 2-quinolone derivatives” (Janssen Pharmaceutica, N.V., priority 1995, dated 1999)

Target: T1, Human farnesyl protein transferase (Homo sapiens, UniProt P49354+P49356)
T1 construct: were used as a source of human enzyme; endogenous in cells; host or cells: Kirsten virus transformed human osteosarcoma (KHOS) cells (ATCC), grown as monolayers or as solid tumors in nude mice; ammonium sulfate fraction and Q Sepharose pool
Experiment: In Vitro Assay for Inhibition of Farnesyl Protein Transferase ([3H] Scintillation Proximity Assay)
Assay type: biochemical
Details: Table 7; human enzyme from KHOS cells; biotinylated lamin B peptide substrate; 60 min, 37° C.; read-out: IC50 (concentration of test compound producing 50% inhibition of enzyme activity)
Method: In Vitro Assay for Inhibition of Farnesyl Protein Transferase Human farnesyl protein transferase was prepared essentially as described ([…] al., Methods: A Companion to Methods in Enzymology vol 1, 241-245, 1990). Kirsten virus transformed human osteosarcoma (KHOS) cells (American Type Culture Collection, Rockvill, Md., USA) grown as solid tumors in nude mice or grown as monolayer cell cultures were used as a source of human enzyme. Briefly, cells or tumors were homogenized in buffer containing 50 mM Tris, 1 mM EDTA, 1 mM EGTA and 0.2 mM phenylmethylsulfonylfluoride (pH 7.5). The homogenates were centrifuged 28,000× g for 60 min and the supernatants collected. A 30-50% ammonium sulfate […] prepared, and the resulting precipitate was resuspended in a small (10 to 20 ml) volume of dialysis buffer containing 20 mM Tris, 1 mM dithiothreitol and 20 μM ZnCl2. The ammonium sulfate fraction was dialyzed overnight against two changes of the same buffer. The dialyzed material was applied to a 10×1 cm Q Fast Flow Sepharose (Pharmacia LKB Biotechnology Inc., Piscataway, N.J., USA) which had been preequilibrated with 100 ml of dialysis buffer supplemented with 0.05M NaCl. The column was washed with an additional 50 ml of dialysis buffer plus 0.05M NaCl followed by a gradient from 0.05M to 0.25M NaCl prepared in dialysis buffer. The enzyme activity was eluted with a linear gradient of 0.25 to 1.0M NaCl prepared in the dialysis buffer. Fractions containing 4 to 5 ml volumes of column eluate were collected and analyzed for farnesyl protein transferase activity. Fractions with enzyme activity were pooled and supplemented with 100 μM ZnCl2. Enzyme samples were stored frozen at -70° C. The activity of farnesyl protein transferase was measured using the Farnesyl Transferase [^3 H] Scintillation Proximity Assay (Amersham International plc., England) under the conditions specified by the manufacturer. […] The reaction mixture was warmed to 37° C. The enzyme reaction was started by adding 20 μl of diluted human farnesyl protein transferase. […] Reactions were terminated by the addition of STOP/scintillation proximity bead reagent (Amersham). The reaction product [^3 H]-farnesyl-(Cys)-biotin lamin B peptide was captured on the streptavidin linked scintillation proximity bead. The amount of [^3 H]-farnesyl-(Cys)-biotin lamin B peptide synthesized in the presence or absence of test compounds was quantified as cpm by counting on a Wallac Model 1480 Microbeta Liquid Scintillation Counter. The cpm of product was considered to be farnesyl protein transferase activity. The protein farnesyl transferase activity observed in the presence of test compound was normalized to farnesyl transferase activity in the presence of 10% DMSO and expressed as per cent inhibition. […] W. Johnson Pharmaceutical Research Institue (Spring House, Pa., USA) on a VAX computer.

Row | SMILES | IC50 [nM]
1 | O=c1cc(-c2ccccc2)c2cc(C(c3ccccc3)n3ccnc3)ccc2[nH]1 (racemic) [Compound 1, (±)-6-[(1H-imidazol-1-yl)phenylmethyl]-4-phenyl-2(1H)-quinolinone] | 930
2 | Cn1c(=O)cc(-c2ccccc2)c2cc(C(c3ccc(Cl)cc3)n3ccnc3)ccc21 (racemic) [Compound 8, (±)-6-[(4-chlorophenyl)-1H-imidazol-1-yl-methyl]-1-methyl-4-phenyl-2(1H)-quinolinone] | 70
3 | COC(=O)C(CC(C)C)NC(=O)Cn1c(=O)cc(-c2ccccc2)c2cc(C(c3ccc(Cl)cc3)n3ccnc3)ccc21 (racemic) [Compound 39] | 47
4 | O=C1CC(c2ccccc2)c2cc(C(c3ccc(Cl)cc3)n3ccnc3)ccc2N1 (racemic) [Compound 57, (±)-6-[(4-chlorophenyl)-1H-imidazol-1-ylmethyl]-3,4-dihydro-4-phenyl-2(1H)-quinolinone] | 1200
5 | Cn1c(=O)cc(-c2ccccc2)c2cc(C(CO)(c3ccc(Cl)cc3)n3ccnc3)ccc21 (racemic) [Compound 59, (±)-6-[1-(4-chlorophenyl)-2-hydroxy-1-(1H-imidazol-1-yl)ethyl]-1-methyl-4-phenyl-2(1H)-quinolinone monohydrate] | 13
6 | Cn1c(=O)cc(-c2cccc(Cl)c2)c2cc(C(C)(c3ccc(Cl)cc3)n3ccnc3)ccc21 (racemic) [Compound 62, (±)-4-(3-chlorophenyl)-6-[1-(4-chlorophenyl)-1-(1H-imidazol-1-yl)ethyl]-1-methyl-2(1H)-quinolinone] | 22
7 | Oc1cc(-c2ccccc2)c2cc(C(c3ccc(Cl)cc3)n3ccnc3)ccc2n1 (single isomer, unassigned; (-)) [Compound 7, (-)-(B)-6-[(4-chlorophenyl)-1H-imidazol-1-ylmethyl]-4-phenyl-2(1H)-quinolinone] | 110
8 | O=c1cc(-c2ccccc2)c2cc(C(c3ccc(Cl)cc3)n3ccnc3)ccc2[nH]1 (centres unmarked) [Compound 2] | 180
9 | O=c1cc(-c2ccccc2)c2cc(C(c3cccc(Cl)c3)n3ccnc3)ccc2[nH]1 (centres unmarked) [Compound 3] | 1400
10 | O=c1cc(-c2ccccc2)c2cc(C(c3ccc(F)cc3)n3ccnc3)ccc2[nH]1 (centres unmarked) [Compound 4] | 315
11 | O=c1cc(-c2ccccc2)c2cc(C(c3ccc(Cl)cc3)n3ccnc3)ccc2n1Cc1ccccc1 (centres unmarked) [Compound 10] | 220
12 | O=c1cc(-c2ccc(Cl)cc2)c2cc(C(c3ccc(Cl)cc3)n3ccnc3)ccc2[nH]1 (centres unmarked) [Compound 11] | 320
13 | O=c1cc(-c2ccccc2Cl)c2cc(C(c3ccc(Cl)cc3)n3ccnc3)ccc2[nH]1 (centres unmarked) [Compound 12] | 3200
14 | O=c1cc(-c2cccc(Cl)c2)c2cc(C(c3ccc(Cl)cc3)n3ccnc3)ccc2[nH]1 (centres unmarked) [Compound 13, 4-(3-chlorophenyl)-6-[(4-chlorophenyl)-1H-imidazol-1-ylmethyl]-2(1H)-quinolinone] | 34
15 | CCCn1c(=O)cc(-c2ccccc2)c2cc(C(c3ccc(Cl)cc3)n3ccnc3)ccc21 (centres unmarked) [Compound 14] | 700
16 | Cn1c(=O)cc(-c2cccc(Cl)c2)c2cc(C(c3ccc(Cl)cc3)n3ccnc3)ccc21 (centres unmarked) [Compound 15, 4-(3-chlorophenyl)-6-[(4-chlorophenyl)-1H-imidazol-1-ylmethyl]-1-methyl-2(1H)-quinolinone] | 16
17 | CCOC(=O)Cn1c(=O)cc(-c2ccccc2)c2cc(C(c3ccc(Cl)cc3)n3ccnc3)ccc21 (centres unmarked) [Compound 17] | 230
18 | Cc1cccc(-c2cc(=O)[nH]c3ccc(C(c4ccc(Cl)cc4)n4ccnc4)cc23)c1 (centres unmarked) [Compound 18] | 40
19 | O=c1cc(-c2cccc(C(F)(F)F)c2)c2cc(C(c3ccc(Cl)cc3)n3ccnc3)ccc2[nH]1 (centres unmarked) [Compound 20] | 240

Row | SMILES | IC50 [nM]
20 | O=c1cc(-c2cccc(F)c2)c2cc(C(c3ccc(Cl)cc3)n3ccnc3)ccc2[nH]1 (centres unmarked) [Compound 21] | 150
21 | COc1cccc(-c2cc(=O)[nH]c3ccc(C(c4ccc(Cl)cc4)n4ccnc4)cc23)c1 (centres unmarked) [Compound 24] | 32
22 | Cc1ccc(C(c2ccc3[nH]c(=O)cc(-c4ccccc4)c3c2)n2ccnc2)cc1 (centres unmarked) [Compound 25] | 262
23 | O=c1cc(-c2ccc(Cl)c(Cl)c2)c2cc(C(c3ccc(Cl)cc3)n3ccnc3)ccc2[nH]1 (centres unmarked) [Compound 26] | 227
24 | Cc1ccc(-c2cc(=O)[nH]c3ccc(C(c4ccc(Cl)cc4)n4ccnc4)cc23)cc1 (centres unmarked) [Compound 27] | 193
25 | Cc1ccccc1-c1cc(=O)[nH]c2ccc(C(c3ccc(Cl)cc3)n3ccnc3)cc12 (centres unmarked) [Compound 28] | 2200
26 | COc1ccc(CCn2c(=O)cc(-c3ccccc3)c3cc(C(c4ccc(Cl)cc4)n4ccnc4)ccc32)cc1 (centres unmarked) [Compound 29] | 2400
27 | O=c1cc(-c2cccc(Br)c2)c2cc(C(c3ccc(Cl)cc3)n3ccnc3)ccc2[nH]1 (centres unmarked) [Compound 30] | 21
28 | O=c1cc(-c2ccccc2)c2cc(C(c3ccc(Cl)cc3Cl)n3ccnc3)ccc2[nH]1 (centres unmarked) [Compound 31] | 480
29 | O=c1cc(-c2ccccc2)c2cc(C(c3ccccc3Cl)n3ccnc3)ccc2[nH]1 (centres unmarked) [Compound 32] | 530
30 | COc1ccc(C(c2ccc3[nH]c(=O)cc(-c4ccccc4)c3c2)n2ccnc2)cc1 (centres unmarked) [Compound 33] | 850
31 | O=c1cc(-c2ccccc2)c2cc(C(c3ccc(Cl)c(Cl)c3)n3ccnc3)ccc2[nH]1 (centres unmarked) [Compound 34] | 600
32 | O=c1cc(-c2cc(Cl)cc(Cl)c2)c2cc(C(c3ccc(Cl)cc3)n3ccnc3)ccc2[nH]1 (centres unmarked) [Compound 37] | 96
33 | O=c1cc(-c2ccccc2)c2cc(C(c3ccc(Cl)cc3)n3cnc(-c4ccccc4)c3)ccc2[nH]1 (centres unmarked) [Compound 47] | 105
34 | Cc1cncn1C(c1ccc(Cl)cc1)c1ccc2[nH]c(=O)cc(-c3ccccc3)c2c1 (centres unmarked) [Compound 49] | 300
35 | Cc1cncn1C(c1ccc(Cl)cc1)c1ccc2[nH]c(=O)cc(-c3cccc(Cl)c3)c2c1 (centres unmarked) [Compound 53] | 32
36 | CC(c1ccc(Cl)cc1)(c1ccc2[nH]c(=O)cc(-c3ccccc3)c2c1)n1ccnc1 (centres unmarked) [Compound 58] | 270
37 | CCCC(c1ccc(Cl)cc1)(c1ccc2c(c1)c(-c1cccc(Cl)c1)cc(=O)n2C)n1ccnc1 (centres unmarked) [Compound 65] | 51

System: NIH 3T3 cells transformed by the T24 activated human H-ras gene
Experiment: Ras-Transformed Cell Phenotype Reversion Assay
Assay type: cell-based, mouse
Details: NIH3T3; Table 8; T24 H-ras transformed NIH 3T3 cells; 72 hours; cell counts
Excerpt: "Ras-Transformed Cell Phenotype Reversion Assay" Insertion of activated oncogenes such as the mutant ras gene into mouse NIH 3T3 cells converts the cells to a transformed phenotype. The cells become tumorigenic, display anchorage independent growth in semi-solid medium and lose contact inhibition. Loss of contact inhibition produces cell cultures which no longer form uniform monolayers. Rather, the cells pile up into multicellular nodules and grow to very high saturation densities in plastic tissue culture dishes. Agents such as protein farnesyl transferase inhibitors which revert the ras transformed phenotype restore the uniform monolayer growth pattern to cells in culture. This reversion is easily monitored by counting the number of cells in tissue culture plates. Transformed cells will achieve higher cell numbers than cells which have reverted to an untransformed phenotype. Compounds which revert the transformed phenotype should produce antitumor effects in tumors bearing ras gene mutations. Method Compounds are screened in tissue culture in NIH 3T3 cells transformed by the T24 activated human H-ras gene. Cells are seeded at an initial density of 200,000 cells per well (9.6 cm^2 surface area) in six-well cluster tissue culture plates. Test compounds are immediately added to 3.0 ml cell growth mediuim in a 3.0 μl volume of DMSO, with a final concentration of DMSO in the cell growth medium of 0.1%. […] Then the cells are detached in 1.0 ml trypsin-EDTA cell dissociation medium and counted on a Coulter particle counter. Measurements Cell numbers expressed as cells per well are measured using a Coulter Particle Counter. All cell counts were corrected for the initial cell input density by subtracting 200,000. Control cell counts=[cell counts from cells incubated with DMSO vehicle--200,000] Test compound cell counts=[cell counts from cells incubated with test compound--200,000]. [formula]

Row | SMILES | IC50 [nM]
38 | CCCOc1cccc(-c2cc(=O)n(C)c3ccc(C(c4ccc(Cl)cc4)n4ccnc4)cc23)c1 (racemic) [Compound 74, (±)-6-[(4-chlorophenyl)-1H-imidazol-1-ylmethyl]-1-methyl-4-(3-propoxyphenyl)-2(1H)-quinolinone ethanedioate (2:3).sesquihydrate] | 500
39 | COCC(c1ccc(Cl)cc1)(c1ccc2c(c1)c(-c1cccc(Cl)c1)cc(=O)n2C)n1ccnc1 (centres unmarked) [Compound 67] | 114
40 | CSCC(c1ccc(Cl)cc1)(c1ccc2c(c1)c(-c1cccc(Cl)c1)cc(=O)n2C)n1ccnc1 (centres unmarked) [Compound 69] | 500
41 | CN(C)CCn1c(=O)cc(-c2cccc(Cl)c2)c2cc(C(c3ccc(Cl)cc3)n3ccnc3)ccc21 (centres unmarked) [Compound 80] | 169
